Reference: US12152048B2, “Nitroxoline prodrug and use thereof” (Jiangsu Yahong Meditech Co., Ltd., priority 2018, dated 2024)
Converted amounts (≈) assume the structure as drawn.

Experiments:
[1] = Determination of water solubility in phosphate buffer; type: physicochemical; details: for solubility at 24 h: aqueous buffer, thermodynamic from solid, phosphate buffer pH 7.4, room temperature
In short: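 2 mg solid compound shaken in 500 μL phosphate buffer (pH 1.2, 4.5, 6.8 or 7.4) in a sealed flask, room temperature, 24 h. Suspension vacuum-filtered; dissolved concentration in filtrate quantified by LC/MS/MS.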

[2] = Stability in mouse liver microsome; type: in vitro ADME; details: 2 μM, 37° C., 30 minutes
[3] = Stability in mouse plasma; type: in vitro ADME
Text: (§1) Experimental instruments: thermostatic shaker (SHA-B, Guohua Electric Appliance Co., Ltd.); centrifuge (5810R, Eppendorf); mass spectrometry (AP4000, Applied Biosystems, USA); liquid chromatography (LC-30AD, Shimadzu); sample injector (CTC Analytics AG System, CTC).
(§2) Test animals: plasma of human (batch number: BRH1343165), rat (batch number: RAT336728), mouse (batch number: MSE280000), dog (batch number: BGL99137) and monkey (batch number: PH-Monkey-20180821) are purchased from Shanghai Sixin Biological Technology Co., Ltd.
(§3) Experimental process: the compound of the present invention was dissolved in an organic solvent to obtain a 1 mM working solution. 3 μL of the working solution were added to 597 μL of pre-incubated human or rat plasma and mixed well. 50 μL of the solution were immediately taken out as the 0 minute sample. The remaining sample was incubated at 37° C., and 50 μL of sample were taken out at 15, 30, 60 and 120 minutes respectively. All the samples taken out were immediately processed to precipitate protein, and centrifuged to obtain a supermate for the determination of the compound concentration by LC/MS/MS.

[4] = Stability in dog plasma; type: in vitro ADME
Text: as §1, §2, §3

[5] = Stability in monkey plasma; type: in vitro ADME
Text: as §1, §2, §3

[6] = Stability in liver microsome, overall conclusion (species not stated); type: in vitro ADME; details: conclusion in words
[7] = Stability in rat plasma
Text: as §1, §2, §3

[8] = Stability in human plasma
Text: as §1, §2, §3

[9] = Stability in dog liver microsome; details: 2 μM, 37° C., 30 minutes
[10] = Stability in rat liver microsome; details: 2 μM, 37° C., 30 minutes
Experimental: Experimental instruments: thermostatic shaker (SHA-B, Guohua Electric Appliance Co., Ltd.); centrifuge (5810R, Eppendorf); mass spectrometry (API4000, Applied Biosystems, USA); liquid chromatography (LC-30AD, Shimadzu); sample injector (CTC Analytics AG System, CTC).
Experimental process: 25 μg/mL alamethicin (Aldrich), 5 mM magnesium chloride and 0.5 mg/mL microsome (XENOTECH) were added to 100 mM phosphate buffer to obtain a coenzyme-free reaction solution. A portion of the coenzyme-free reaction solution was added with 1 mM reductive nicotinamide adenine dinucleotide phosphate (Aldrich) and 5 mM uridine diphosphate glucuronic acid (Aldrich) to obtain a coenzyme-containing reaction solution. The working solution of the compound of the present invention was added to the two reaction solutions so that the final concentration of the compound was 2 μM. Immediately after mixing well, 50 μL of the solution were taken out as the 0 minute sample, and 50 μL of the remaining sample were taken out after incubating at 37° C. for 30 minutes. All the samples taken out were immediately processed to precipitate protein, and centrifuged to obtain a supernate for the determination of the compound concentration by LC/MS/MS.

[11] = Stability in human liver microsome; details: 2 μM, 37° C., 30 minutes
[12] = Stability in plasma, overall conclusion (species not stated); details: conclusion in words
[13] = Pharmacokinetics assay in dog (nitroxoline concentration in plasma after single intravenous or oral administration); type: in vivo, beagle dog; details: nitroxoline in beagle dog plasma
Text: Nitroxoline is mainly metabolized by the phase II metabolism in liver with a fast metabolism rate, so it has a short half-life in the body. The present invention modified its structure and 13 compounds of formula (I) were obtained through chemical synthesis. The change of nitroxoline concentration in dog plasma after a single intravenous or oral administration of nitroxoline and the compound of formula (I) was studied to evaluate the pharmacokinetic behavior of nitroxoline and the compound of formula (I) in dog body.
Male beagle dog (Beijing Marshall Biotechnology Co., Ltd., Certificate No.: SCXK (BJ) 2016-0001, Qualified number: 11400600001728), 3 dogs per group, weight 10 to 13 kg, 20 to 22 months old. The dogs were fasted overnight before the administration with free access to water, and fed 4 hours after the administration. The test compound was added to an EP tube, and then added with DMSO, solutol and sterilized water for injection (the volume ratio of the three was 1:2:17, v:v:v). The EP tube was subjected to ultrasound for 20 minutes to make the test compound dissolve well (compound concentration: 0.005 mmol/mL). The dose for intravenous administration was 0.01 mmol/kg, and the dose for oral administration was 0.1 mmol/kg. 0.3 ml of whole blood was collected from jugular vein before the administration (0 hour) and 0.0833, 0.25, 0.5, 1, 2, 4, 6, 8, 10 and 12 hours after the administration (sampling points can be adjusted according to the specific situation) respectively. The blood sample was placed in a centrifuge tube containing EDTA-K2 anticoagulant (Aldrich), and the centrifuge tube was left to stand in ice. The blood sample was centrifuged for 10 minutes at 1530 g within 0.5 hour to obtain all clean plasma. The plasma was placed in another clean centrifuge tube, and stored in a refrigerator at −20° C. for later use.
Solution for standard curve was formulated. 1000 μL of internal standard working solution (containing a solution of verapamil (5 ng/mL, Aldrich), glibenclamide (50 ng/mL, Aldrich) and diclofenac (50 ng/mL, Aldrich) in acetonitrile) was added to 10 μL of the solution for standard curve and sample, and the mixture was shaked by vortex for 5 minutes. The mixture was centrifuged for 10 minutes at 4° C., 3700 rpm. 60 μL of the supernatant were placed in an injection tube, and mixed with 120 μL of water. 10 μL of the solution were injected into the liquid chromatography-mass spectrometry system for determination. The pharmacokinetic parameters were calculated by the WinNonlin V 6.2 non-compartmental model.

SMILES	solubility at 24 h [1] [µg/mL]	Percentage of the compound remaining in mouse liver microsome ([2]; with coenzyme) [%]	Percentage of the compound remaining in mouse liver microsome ([2]; without coenzyme) [%]	Percentage of the compound remaining in plasma ([4]; 0 minute) [%]	Percentage of the compound remaining in plasma ([4]; 37° C., 15 minutes) [%]	Percentage of the compound remaining in plasma ([4]; 37° C., 30 minutes) [%]	Percentage of the compound remaining in plasma ([4]; 37° C., 60 minutes) [%]	Percentage of the compound remaining in plasma ([4]; 37° C., 120 minutes) [%]	stability in microsome [6]	Percentage of the compound remaining in plasma ([7]; 0 minute) [%]	Percentage of the compound remaining in plasma ([7]; 37° C., 15 minutes) [%]	Percentage of the compound remaining in plasma ([7]; 37° C., 30 minutes) [%]	Percentage of the compound remaining in plasma ([7]; 37° C., 60 minutes) [%]	Percentage of the compound remaining in plasma ([7]; 37° C., 120 minutes) [%]	Percentage of the compound remaining in plasma ([8]; 0 minute) [%]	Percentage of the compound remaining in plasma ([8]; 37° C., 15 minutes) [%]	Percentage of the compound remaining in plasma ([8]; 37° C., 30 minutes) [%]	Percentage of the compound remaining in plasma ([8]; 37° C., 60 minutes) [%]	Percentage of the compound remaining in plasma ([8]; 37° C., 120 minutes) [%]	Percentage of the compound remaining in dog liver microsome ([9]; with coenzyme) [%]	also measured
CN1CCN(C(=O)OCOc2ccc([N+](=O)[O-])c3cccnc23)CC1 [Compound 6, (5-nitroquinolin-8-yloxy)methyl 4-methylpiperazine-1-carboxylate]	985 (≈ 2840 µM)	51.08	116.52	100.0	111.5	111.9	114.6	105.9	high stability	100.0	95.5	98.8	90.2	89.4	100.0	97.5	106.0	95.0	99.3	38.76	Percentage of the compound remaining in plasma ([3]; 0 minute): 100.0%; Percentage of the compound remaining in plasma ([3]; 37° C., 15 minutes): 97.7%; Percentage of the compound remaining in plasma ([3]; 37° C., 30 minutes): 95.4%; Percentage of the compound remaining in plasma ([3]; 37° C., 60 minutes): 98.9%; Percentage of the compound remaining in plasma ([3]; 37° C., 120 minutes): 92.1%; Percentage of the compound remaining in plasma ([5]; 0 minute): 100.0%; Percentage of the compound remaining in plasma ([5]; 37° C., 15 minutes): 98.3%; Percentage of the compound remaining in plasma ([5]; 37° C., 30 minutes): 101.1%; Percentage of the compound remaining in plasma ([5]; 37° C., 60 minutes): 91.6%; Percentage of the compound remaining in plasma ([5]; 37° C., 120 minutes): 98.9%; Percentage of the compound remaining in dog liver microsome ([9]; without coenzyme): 114.53%; Percentage of the compound remaining in rat liver microsome ([10]; with coenzyme): 75.71%; Percentage of the compound remaining in rat liver microsome ([10]; without coenzyme): 99.73%; Percentage of the compound remaining in human liver microsome ([11]; with coenzyme): 109.46%; Percentage of the compound remaining in human liver microsome ([11]; without coenzyme): 118.37%; stability in plasma [12]: high stability
O=C(OCOc1ccc([N+](=O)[O-])c2cccnc12)N1CCOCC1 [Compound 7, (5-nitroquinolin-8-yloxy)methyl morpholine-4-carboxylate]	134 (≈ 403 µM)	55.15	82.50	100.0	104.0	107.2	106.5	101.8	high stability	100.0	94.0	98.6	95.0	91.6	100.0	93.5	97.8	99.6	105.2	28.07	Percentage of the compound remaining in plasma ([3]; 0 minute): 100.0%; Percentage of the compound remaining in plasma ([3]; 37° C., 15 minutes): 98.5%; Percentage of the compound remaining in plasma ([3]; 37° C., 30 minutes): 98.8%; Percentage of the compound remaining in plasma ([3]; 37° C., 60 minutes): 96.1%; Percentage of the compound remaining in plasma ([3]; 37° C., 120 minutes): 89.3%; Percentage of the compound remaining in plasma ([5]; 0 minute): 100.0%; Percentage of the compound remaining in plasma ([5]; 37° C., 15 minutes): 96.5%; Percentage of the compound remaining in plasma ([5]; 37° C., 30 minutes): 105.9%; Percentage of the compound remaining in plasma ([5]; 37° C., 60 minutes): 99.0%; Percentage of the compound remaining in plasma ([5]; 37° C., 120 minutes): 98.7%; Percentage of the compound remaining in dog liver microsome ([9]; without coenzyme): 83.78%; Percentage of the compound remaining in rat liver microsome ([10]; with coenzyme): 69.51%; Percentage of the compound remaining in rat liver microsome ([10]; without coenzyme): 90.84%; Percentage of the compound remaining in human liver microsome ([11]; with coenzyme): 91.44%; Percentage of the compound remaining in human liver microsome ([11]; without coenzyme): 96.71%; stability in plasma [12]: high stability
CN(CC(O)CO)C(=O)OCOc1ccc([N+](=O)[O-])c2cccnc12 (stereo not drawn) [Compound 52, (5-nitroquinolin-8-yloxy)methyl 2,3-dihydroxypropyl(methyl)carbamate]	687 (≈ 1960 µM)	95.16	105.69	–	–	–	–	–	high stability	100.0	102.5	90.1	84.6	71.3	100.0	95.6	94.1	89.2	83.3	85.67	water solubility compared with nitroxoline ([1]; conclusion in words): increased by several times; Percentage of the compound remaining in dog liver microsome ([9]; without coenzyme): 91.82%; Percentage of the compound remaining in rat liver microsome ([10]; with coenzyme): 101.34%; Percentage of the compound remaining in rat liver microsome ([10]; without coenzyme): 99.39%; Percentage of the compound remaining in human liver microsome ([11]; with coenzyme): 102.24%; Percentage of the compound remaining in human liver microsome ([11]; without coenzyme): 108.46%; stability in plasma [12]: high stability

Further lines, with some results ahead:

solubility at 24 h [1] [µg/mL]	Percentage of the compound remaining in mouse liver microsome ([2]; with coenzyme) [%]	Percentage of the compound remaining in mouse liver microsome ([2]; without coenzyme) [%]	Percentage of the compound remaining in plasma ([4]; 0 minute) [%]	Percentage of the compound remaining in plasma ([4]; 37° C., 15 minutes) [%]	Percentage of the compound remaining in plasma ([4]; 37° C., 30 minutes) [%]	Percentage of the compound remaining in plasma ([4]; 37° C., 60 minutes) [%]	Percentage of the compound remaining in plasma ([4]; 37° C., 120 minutes) [%]	stability in microsome [6]	Percentage of the compound remaining in plasma ([7]; 0 minute) [%]	Percentage of the compound remaining in plasma ([7]; 37° C., 15 minutes) [%]	Percentage of the compound remaining in plasma ([7]; 37° C., 30 minutes) [%]	Percentage of the compound remaining in plasma ([7]; 37° C., 60 minutes) [%]	Percentage of the compound remaining in plasma ([7]; 37° C., 120 minutes) [%]	Percentage of the compound remaining in plasma ([8]; 0 minute) [%]	Percentage of the compound remaining in plasma ([8]; 37° C., 15 minutes) [%]	Percentage of the compound remaining in plasma ([8]; 37° C., 30 minutes) [%]	Percentage of the compound remaining in plasma ([8]; 37° C., 60 minutes) [%]	Percentage of the compound remaining in plasma ([8]; 37° C., 120 minutes) [%]	Percentage of the compound remaining in dog liver microsome ([9]; with coenzyme) [%]	SMILES	also measured
45.5 (≈ 136 µM)	32.13	55.80	100.0	96.3	92.3	78.6	67.3	high stability	–	–	–	–	–	–	–	–	–	–	70.38	COC(=O)CNC(=O)OCOc1ccc([N+](=O)[O-])c2cccnc12 [Compound 53, methyl 2-(((5-nitroquinolin-8-yloxy)methoxy)formamido)acetate]	Percentage of the compound remaining in dog liver microsome ([9]; without coenzyme): 82.59%; Percentage of the compound remaining in rat liver microsome ([10]; with coenzyme): 54.58%; Percentage of the compound remaining in rat liver microsome ([10]; without coenzyme): 54.77%; Percentage of the compound remaining in human liver microsome ([11]; with coenzyme): 79.98%; Percentage of the compound remaining in human liver microsome ([11]; without coenzyme): 84.61%; stability in plasma [12]: high stability
352 (≈ 1850 µM)	–	–	100.0	100.8	101.1	95.3	98.4	–	100.0	93.9	94.1	95.3	88.4	100.0	99.3	98.3	100.6	91.6	–	O=[N+]([O-])c1ccc(O)c2ncccc12 [Nitroxoline]	Percentage of the compound remaining in plasma ([3]; 0 minute): 100.0%; Percentage of the compound remaining in plasma ([3]; 37° C., 15 minutes): 95.8%; Percentage of the compound remaining in plasma ([3]; 37° C., 30 minutes): 97.4%; Percentage of the compound remaining in plasma ([3]; 37° C., 60 minutes): 97.4%; Percentage of the compound remaining in plasma ([3]; 37° C., 120 minutes): 93.0%; Percentage of the compound remaining in plasma ([5]; 0 minute): 100.0%; Percentage of the compound remaining in plasma ([5]; 37° C., 15 minutes): 101.2%; Percentage of the compound remaining in plasma ([5]; 37° C., 30 minutes): 104.0%; Percentage of the compound remaining in plasma ([5]; 37° C., 60 minutes): 101.8%; Percentage of the compound remaining in plasma ([5]; 37° C., 120 minutes): 100.4%; AUC0-inf ([13]; intravenous administration 0.01 mmol/kg): 3300 ng*hmL^−1; AUC0-inf ([13]; oral administration 0.1 mmol/kg): 4780 ng*hmL^−1
